Test results: patent US7824661B2, “Technetium- and rhenium-bis(heteroaryl) complexes, and methods of use thereof” (priority 2002, dated 2010)

How the values were obtained:
[1] = Whole body biodistribution studies in rats; assay type: in vivo, Rats (Sprague Dawley, male)
Method: The animal care and use procedures were in accordance with the Guide for the Care and Use of Laboratory Animals and the Animal Welfare Act. The vertebrate animals in this research project were used to investigate the biodistribution and pharmacokinetics of the rotenone derivatives and determine uptake in the heart. Rats (Sprague Dawley, male, at 80-100 grams each) were used for the whole body biodistribution studies. The Tc-complexes, as well as Cardiolite™, were evaluated at three time points; 5, 30, and 120 minutes, with five animals per time point. In order to provide accurate statistics in the clearance rate measurements and to account for intra-species variation it was necessary to use this number of animals. The product was diluted to ˜10 μCi/100 μl using freshly prepared 10% ethanol/saline (0.9%) solution. The rats were injected via a lateral tail vein with a volume of 0.1 mL. The rats were sacrificed by decapitation, with immediate blood collection at the desired time points. Whole body biodistributions were performed on the animals immediately following decapitation, organ and tissue samples were taken and washed of excess blood, blotted dry and weighed. Radioactivity was assayed using automated Nal well counter. All tissue samples were counted together along with an aliquot of the injected dose so that % injected dose and % injected dose per gram of tissue could be calculated. […]

[2] = assay type: physicochemical
Method: The stability and robustness of the technetium-di(pyridine) complexes was assessed using challenges with free cysteine and histidine. Specifically, the experiments were performed using [^99mTc(CO)3(dipyridinemethylamine)]^+1.
This approach enables the creation of libraries containing the {M(CO)31}^1+ core. We have begun to define the biological fate of the ^99mTc-dipyridine complexes, allowing us to compare a series of future tridentate analogs. The dipyridine labeling proceeded in high yield and was stable to excess histidine and cysteine challenges for more than 18 hours. […] Activity decreased in all tissues as a function of time, except in the GI tract, which increased with time.
[^99mTc(CO)3(H2O)3]^+ was heated with [{N,N-di(pyridyl-2-methyl)}N-butyl-phthalimide in 0.5 mL (1 mg/mL) of methanol at 100° C. for 60 minutes. […] The product eluted with methanol at 20.8 minutes. The HPLC analysis was performed using a Supelco C18 column, 25 cm×4.6 mm column (5 μm pore size), equipped with 2 cm guard using solvent A=0.05 M triethylammonium phosphate buffer pH 2.5 and solvent B=methanol. The method employed was a gradient 5-95% B, 1 mL/minute for 30 minutes. The gradient ramped from 5-95 from 3-20 minutes.

Row | stability and robustness in challenges with free cysteine and histidine [2] | change in the components by HPLC analysis ([2]; aqueous solution of the complex incubated with cysteine for 18 hours at 37° C. at pH 7.4) | Substance | blood clearance, % ID/g ([1]; at 5 minutes) [% ID/g] | blood clearance, % ID/g ([1]; by 30 minutes) [% ID/g]
1 | – | – | [^99mTc(CO)3(DpK)] | 0.6 | 0.07
2 | stable | no significant change | [^99mTc(CO)3(dipyridinemethylamine)]^+1 | – | –
